The test system of one data set is RET-driven models. The note with it: several RET-driven models; cited from earlier work.
Data set [1] relates to NSCLC patients with RET-alterations. The note with it: Subbiah et al. 2018; cited from earlier work.
Data set [2] has as its system RET, ERK1/2 and AKT phosphorylation in PC9^CCDC6-RET cells. Put plainly: Western blot of downstream signaling. The note with it: 6 hours. It is filed as cell-based. As for the experimental part: FIG. 4A is a western blot for PC9^EV and PC9^CCDC6-RET cells treated with 100 nM afatinib, 1 μM osimertinib, Compound 1, or combinations thereof for 6 hours and harvested for western blotting with the antibodies.
FIG. 5A is a western blot for PC^9V and PC9^CCDC6-RET cells treated with 100 nM afatinib, 1 μM osimertinib, cabozanitinib, or combinations thereof for 6 hours and harvested for western blot analysis.
(§1) Afatinib, osimertinib, and cabozantinib were purchased from Selleck Chemicals and resuspended in DMSO. Phospho-EGFR (Y1068), EGFR, pBRAF (Ser445), RET, pAKT (Ser473), AKT, pMEK1/2 (Ser217/221), MEK1/2, pERK1/2 (Thr202/204), ERK1/2, and Actin antibodies were purchased from Cell Signaling Technology. pRET (Y1062) antibody was obtained from Abcam.
On the technique in general: Immunoblotting shows a protein as a band on a membrane.

Another data set deals with RET oncogenic mutants. To be noted: cellular systems; cited from earlier work.
The next data set concerns PC9 parental cells (EV). Put plainly: Cell proliferation (CellTiter-Glo). It is filed as cell-based. To be noted: 1 μM osimertinib, over five days. (In general: ATP-based viability assays read luminescence as a measure of living cells.)
Data set [3] has as its system MGH134 parental cells (EV). In words: Cell proliferation (CellTiter-Glo). Format: cell-based. To be noted: 1 μM osimertinib, over five days.
For data set [4], the system named is PC9^CCDC6-RET cells (EGFR del19). In words: Cell proliferation / viability (CellTiter-Glo). Format: cell-based. As for the experimental part:
(§2) PC9 and MGH134 cells expressing the CCDC6-RET gene fusion or empty vector (EV) were treated with 1 μM osimertinib or vehicle (VEH) and cell proliferation determined over the course of five days (ratio compared to the beginning of treatment). Data shown are the mean±s.e.m. of three independent biological replicates.
(§3) Data are shown as a percentage of vehicle treated control and are the mean±s.e.m of three independent biological replicates.
as §3
(§4) For drug dose-response assays, cells were seeded into 96-well plates 24 hours before addition of drug. Cell proliferation was determined by CellTiter-Glo assay (Promega) 72-120 hours after adding drug, using standard protocols. For time-course experiments, multiple plates were seeded and drugged in identical fashion, and at the indicated time points, the plates were frozen at −80° C.; all plates in an experiment were developed with CellTiter-Glo simultaneously. Luminescence was measured with SpectraMax i3x Multi-Mode Microplate Reader (Molecular Devices).
(§5) To determine whether CCDC6-RET expression is sufficient to cause acquired drug resistance, CCDC6-RET fusion expressing cell line models were generated by lentiviral infection of PC9 (EGFR del19) and MGH134 (EGFR L858R/T790M) cells (FIG. 2).

Data set [5] deals with RET, ERK1/2 and AKT phosphorylation in MGH134^CCDC6-RET cells. In words: Western blot of downstream signaling. It is filed as cell-based. The note with it: EGFR inhibitor alone (1 μM osimertinib), 6 hours. As for the experimental part:
FIG. 4B is a western blot for MGH134^EV and MGH134^CCDC6-RET cells treated with 1 μM osimertinib, cabozantinib, and Compound 1 or combinations thereof for 6 hours and harvested for western blotting with the indicated antibodies.
as §1

In data set [6] the test system is MGH134^CCDC6-RET cells (EGFR L858R/T790M). As for the experimental part: as §2, §3, §4, §5
The mark [7] stands for this setting: 1 μM osimertinib, over five days.

The values below come from patent publication US20210308134A1, “TREATMENT OF EGFR-MUTANT CANCER” (BLUEPRINT MEDICINES CORPORATION, priority 2018, published 2021).

As to `CO[C@]1(C(=O)N[C@@H](C)c2ccc(-n3cc(F)cn3)nc2)CC[C@H](c2nc(C)cc(Nc3cc(C)[nH]n3)n2)CC1` [Compound 1, (1S,4R)—N—((S)-1-(6-(4-fluoro-1H-pyrazol-1-yl)pyridine-3-yl)ethyl)-1-methoxy-4-(4-methyl-6-((5-methyl-1H-pyrazol-3-yl)amino)pyrimidin-2-yl)cyclohexanecarboxamide], the antitumor efficacy entry in the data set with RET-driven models is “dose-dependent antitumor efficacy”. For the same compound, in data set [1], the clinical responses result is on record as “durable clinical responses” and the off-target toxicity entry is given as “without notable off-target toxicity”. Further, in [2] (Compound 1 alone), the RET phosphorylation result is “suppressed” and the “downstream ERK or AKT phosphorylation” value is “did not decrease”. In addition, the “potency of inhibition of kinase activity” value in the data set with RET oncogenic mutants was “low nanomolar potency”.

Consider `C=CC(=O)Nc1cc(Nc2nccc(-c3cn(C)c4ccccc34)n2)c(OC)cc1N(C)CCN(C)C` [osimertinib], for which the “RET, ERK1/2, and AKT phosphorylation” value in [2] (100 nM afatinib or 1 μM osimertinib alone) and in [5] was “retained” throughout. The cell proliferation result in the data set with PC9 parental cells (EV) was “net decrease in cell viability”; in [3] it was “net decrease in cell viability”; in data set [4] (setting [7]) it was “continued to proliferate”; in data set [6] (setting [7]), “continued to proliferate”. The proliferation rate entry in data set [4] (1 μM osimertinib vs vehicle) and in data set [6] (1 μM osimertinib vs vehicle) was “decreased” each time.
